Reference: patent US20120258938A1, “Enzymatic Production or Chemical Synthesis and Uses for 5,7-Dienes and UVB Conversion Products Thereof” (priority 2008, published 2012)
Blank lines part the entries; values can stand above or below the molecule they belong to.

Columns and labels:
[1] = test system: anti-CD3 stimulated DBA/1 Lac J spleen cells; assay: Cytokine/chemokine production by anti-CD3 stimulated spleen cells (Luminex); format: cell-based, mouse; conditions: spleen cells + anti-CD3 (4 μg/ml) + analogue 10^−7 M, 5 days, supernatant, one mouse
Description: Vitamin D analogues were solubilzed in absolute alcohol (EtOH) and added at 1:100 dilution to cultures of spleen cells from normal DBA/1 Lac J mice (Table 13). […] Therefore, changes are not due to decreased cell viability.
Spleen cells from three normal 8 wk old female DBA/1 Lac J mice were cultured in 96 well tissue culture plates in quadruplicate at 2×10^6 cells/ml in RPMI 1640 medium containing 9% FCS with and without anti-CD3 (4 μg/ml) and with anti-CD3+10^−7M natural vitamin D analogues for 5 days after which time supernatants were harvested and subjected to cytokine multiplex on a Luminex instrument using Milliplex Mouse Kit (values are pg/ml). The general trend in changes in cytokine levels were similar for each of the mice but some produced different levels of each cytokine for each culture additions. Data from one mouse are given and bold numbers indicate those that changed from anti-CD3 stimulated culture with vitamin D analogues added. There was no significant stimulation of IL-1 g, IL-2, IL-4, IL-5, IL-7, IL-9, IL-12 p70, IL-13, IL-15, MIP-2, RANTES or TNFα with the anti-CD3 MOAB.

Human dermal fibroblasts = assay: TGF-b1 induced collagen protein production by dermal fibroblasts; format: cell-based; conditions: collagenase sensitive protein, [3H]-proline
Description: Human dermal fibroblasts grown from explant skin cultures at less than 10 subpassages were plated at 5×10^4 cells per well in 24 well Costar tissue culture plates and were grown to confluency. Complete MEM was then changed to serum free Complete MEM without non-essential amino acids. After 24 hours, culture medium was changed (450 μl/well) to the same and secosteroids listed in Table 14 were added in 10 μl absolute alcohol (ETOH) to a final concentration of 10^−9 and M, 3 replicate wells each. Vehicle control wells (n=6) contained 10 μl (ETOH). After 2 hour pre-incubation, hr TGF-b1 (R and D systems) was added to each well except ETOH wells at a final concentration of 5 ng/ml. After 48 hours of culture, plate wells were paused with 1μ Cl ^3[H]-proline. After 24 hours, culture supernatants were harvested and collagenase sensitive protein was determined as previously described (44).

type I collagen = assay: Type I collagen ELISA, TGF-b1 stimulated skin fibroblasts; format: cell-based; conditions: human skin fibroblasts
Description: (§1) Additional studies using human skin fibroblasts were performed employing a type I collagen specific ELISA Chondrex, and real time RT PCR to quantitate type I collagen protein and Col1A1 mRNA expression in culture of human fibroblast stimulated by TGF-b1 in the presence and absence of 17,20S(OH)2pD3 and/or 20(OH)D3. These studies confirmed that Type I collagen protein production that was induced by TGF-b1 and that Col1A1 mRNA that was induced by TGF-b1 were suppressed by these analogues (FIGS. 44A-44B).

Col1A1 mRNA = assay: Real time RT PCR Col1A1 mRNA, TGF-b1 stimulated skin fibroblasts; format: cell-based; conditions: human skin fibroblasts
Description: as §1

HaCaT keratinocytes = assay: [3H]-thymidine DNA synthesis in HaCaT keratinocytes; format: cell-based, human; conditions: HaCaT, 24 hrs, dose dependent
Description: HaCaT keratinocytes were plated in 96-well plates at the density of 10,000 cells/well in DMEM (Cellgro, Herndon Va.) containing 5% charcoal treated fetal bovine serum (Hyclone, Logan, Utah), 1% antibiotic solution (PSA, Sigma, St. Louis, […].). Next day, media were changed and vehicle (ethanol) or secosteroids added. Cells were incubated with compounds for 48 hours. [^3H]-thymidine (Amersham Biosciences, Picataway, N.Y.) was added to the final concentration of 1 μCi/mL medium for last 12 hours of incubation. Media were then discarded, cells detached with trypsin and harvested on a glass fiber filter (Packard, Meriden, Calif.). Radioactivity was measured with a beta counter (Direct Beta-Counter Matrix 9600; Packard).
To measure DNA synthesis, keratinocytes, melanoma or prostate cancer cells were plated in 96-well plates. After overnight incubation tested compounds were added to the medium to achieve final concentrations 10^−7-10^−10 [M]. 100 μl of medium per well containing vitamin D3 compound was added to the cells. After 36 hours of incubation [3H]-thymidine (specific activity 88.0 Ci/mmol; Amersham Biosciences, Picataway, N.Y., USA) was added at 1 μCi/mL medium. After 12 hours, media were discarded, cells detached with trypsin and harvested on a glass fiber filter (Packard, Meriden, Calif., USA). 3H-radioactivity was measured with a beta counter (Direct Beta-Counter Matrix 9600; Packard).
HaCaT keratinocytes were plated out in 24-well plates, 50,000 cells/well. […] After 4 h media were discarded, cells washed with cold phosphate-buffered saline and incubated in 10% trichloroacetic acid for 30 min. Cells were washed again with phosphate-buffered saline, 100 μl 1.0 M NaOH was added to each well and plates incubated for 30 min at 30° C. The supernatant was collected and the ^3H-radioactivity measured by scintillation counting using a Direct Beta-Counter Matrix 9600 (Packard). The [^3H]-thymidine incorporation into DNA was measured separately for each well and the results entered into the calculation as the mean of 6 wells for each condition in a series of six experiments (n=36). Data were analyzed with GraphPad Prizm Version 4.0 (GraphPad Software Inc., San Diego, Calif., USA) using t tests. Differences were considered significant when p<0.05.

[2] = test system: AbC1 hamster melanoma cells; assay: Soft agar colony formation, AbC1 melanoma; format: cell-based; conditions: AbC1, 3 weeks
Description: Growth and survival of prostate cancer cells (PC3) and melanoma cells SKMEL 188 and AbC1 was determined by following their ability to form colonies in soft agar. Cells growing in monolayer culture were trypsinized and resuspended (1,000 cells/well) in 0.25 ml medium containing 0.4% agarose and 5% charcoal stripped serum (HyClone).
Cell suspensions were added to 0.8% agar layer in 24 well plates. Compounds were added from ethanol stocks (100 μM) to final concentrations of 0.1 nM or 10 nM, in 100 μL media. Each condition was tested in quadruplicate. An ethanol solvent control (amount of ethanol equivalent to test) as well as a media-only control was included in the assay. […] […] Colonies were then counted under the microscope and number of units was calculated as number of colonies formed divided by the number of cells seeded×100.

[3] = test system: SKMEL-188 human melanoma cells; assay: MTT cell viability, SKMEL-188; format: cell-based; conditions: SKMEL-188, 48 hrs, dose dependent
Description: MTT test were performed. Briefly, the cells were seeded in 96-well plate. Following 24, 48, 72 or 96 h incubation, MTT (5 mg/mL in PBS, Promega, Madison, Wis.) was added and the plates were incubated at 37° C. in 5% CO2 for 4 h. Subsequently, medium was discarded, acid isopropanol was added, plates were incubated for 30 min with continuous shaking and absorbance was measured at 570 nm with a plate reader (BIO-RAD Laboratories, Hercules, Calif.).

[4] = test system: K562 human chronic myeloid leukemia cells; assay: Erythroid differentiation of K562 cells; format: cell-based; conditions: 10^-7 M, 7 days
Description: (§2) K562 human chronic myeloid leukemia (erythroleukemia) and MEL mouse erytholeukemia cells were cultured in RPMI 1640 containing 10% FBS and treated with the drugs at concentrations 0.1 μM. A 0.1% ethanol (EtOH) or 2% DMSO were used as negative or positive control, respectively to estimate the vehicle effect and the ability of the cells to differentiate. Media were exchanged every 72 h and drugs added every day. Growth of cultures was estimated by counting number of viable cells (trypan blue negative cells) as described previously.
To estimate erythroid differentiation (production of hemoglobin), first the number of benzidine positive cells was evaluated after 2 and 7 days in culture. Cells were centrifuged and washed four times with PBS and resuspended in 1 mL of fresh PBS. For hemoglobin determination, a benzidine staining solution was freshly prepared by mixing one part of 30% hydrogen peroxide, one part of base stock solution of 3% benzidine in 90% acetic acid, and 5 parts of water. The solution was diluted 1:10 with the cell suspension and aliquoted in 4 wells in 24-well plate (250 μl each). After 10 min of incubation at RT benzidine-positive cells were counted under the microscope with a minimum of 200 cells scored.
Second, to define spectrophotometrically relative content of hemoglobin, equal number of cells (7×106) were washed with cold PBS and lysed for 20 min in 100 μL of lysis buffer (0.2% Triton X-100 in […] potassium phosphate buffer, pH 7.8). The lysates were centrifuged for 15 min at 1500 r.p.m. and 100 μL of the supernatant was incubated with 2 mL of benzidine solution (5 mg/mL in glacial acetic acid) and 2 ml 30% H2O2 for 10 min increases in comparison with the level of hemoglobin in mock-induced K562 or MEL cells.

[5] = test system: K562 human chronic myeloid leukemia cells; assay: Viable cell count, K562 cells; format: cell-based; conditions: 10^-7 M, 7 days
Description: as §2

[6] = test system: mouse erytholeukemia cells (Mel); assay: Viable cell count, MEL cells; format: cell-based; conditions: 10^-7 M, 7 days
Description: as §2

[7] = test system: HL-60 human promyelocytic leukemia cells; assay: Monocytic differentiation (NBT), HL-60; format: cell-based; conditions: HL-60, 0.1 μM
Description: (§3) HL-60 human promyelocytic and U937 promonocytic leukemia cells were treated with the drugs at 0.1 μM or vehicle (negative control or 12-O-tetradecanoylphorbol-13-acetate (TPA) (positive control). Media were changed every 72 h and test substances added fresh every day. Differentiation toward monocytes-like morphology and NBT-reduction has been assessed after 5 and 7 days. Cells (2×106) were washed with PBS four times and resuspended in 200 μL of NBT solution (4 mg/mL) in water. After the addition of 200 ul of TPA solution (2 ug/ml) in PBS cells were incubated at 37° C. for 60 min in 24-well plates. Cell differentiation was assessed by intracellular blue formazan deposits. The NBT positive and negative cells were scored under light microscopy examination (40×) with a minimum of 200 cells scored.
(§4) For spectrophotometric analysis the cells were washed twice with buffer containing cold bovine serum albumin solution (17 mg/mL BSA, 137 mmol/L, NaCl, 5 mmol/L, KCl, 0.8 mmol/L, MgSO4, […], HEPES, pH7.4) to remove unreacted NBT, and the insoluble formazan deposits in the resulting pellet were solubilized in 1 mL of a mixture containing 90% DMSO, 0.1% SDS and 0.01 mmol/L NaOH by vigorous vortexing. The samples were centrifuged 5 min at 1500 g to remove the cellular debris, and then the absorbance of supernatants was measured at 715 nm. Data are expressed as change in A715/106 cells.

[8] = test system: U937 promonocytic leukemia cells; assay: Monocytic differentiation (NBT), U937; format: cell-based, human; conditions: U937, 0.1 μM
Description: as §3, §4

bovine CYP11A1 = bovine CYP11A1 (Bos taurus, UniProt P00189); assay: Metabolism by CYP11A1 (P450scc) in phospholipid vesicles; format: in vitro ADME; conditions: first 2 min of incubation
Chain of bovine CYP11A1 (P00189 40-520): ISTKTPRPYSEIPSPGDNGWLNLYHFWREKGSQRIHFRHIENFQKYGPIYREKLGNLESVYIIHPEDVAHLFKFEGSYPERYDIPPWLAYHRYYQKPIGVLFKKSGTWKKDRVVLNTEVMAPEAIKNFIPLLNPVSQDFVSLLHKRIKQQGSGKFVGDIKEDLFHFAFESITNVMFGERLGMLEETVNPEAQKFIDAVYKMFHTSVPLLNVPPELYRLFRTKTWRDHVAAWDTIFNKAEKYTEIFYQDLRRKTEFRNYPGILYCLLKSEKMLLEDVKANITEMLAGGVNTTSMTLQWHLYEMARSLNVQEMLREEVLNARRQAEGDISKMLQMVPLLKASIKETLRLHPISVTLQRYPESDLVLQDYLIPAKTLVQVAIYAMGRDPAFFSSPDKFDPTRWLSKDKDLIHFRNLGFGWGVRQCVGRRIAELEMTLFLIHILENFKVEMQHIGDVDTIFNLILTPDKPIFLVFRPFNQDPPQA
Description: (§5) Adrenodoxin was added last to initiate the reaction.
(§6) Products and remaining substrate were extracted with dichloromethane, and measured by reverse phase HPLC as described before (12, 13b).

human CYP27B1 = human CYP27B1 (Homo sapiens, UniProt O15528); assay: Metabolism by CYP27B1 in phospholipid vesicles; format: in vitro ADME; conditions: up to 10 min
Chain of human CYP27B1 (O15528 whole entry): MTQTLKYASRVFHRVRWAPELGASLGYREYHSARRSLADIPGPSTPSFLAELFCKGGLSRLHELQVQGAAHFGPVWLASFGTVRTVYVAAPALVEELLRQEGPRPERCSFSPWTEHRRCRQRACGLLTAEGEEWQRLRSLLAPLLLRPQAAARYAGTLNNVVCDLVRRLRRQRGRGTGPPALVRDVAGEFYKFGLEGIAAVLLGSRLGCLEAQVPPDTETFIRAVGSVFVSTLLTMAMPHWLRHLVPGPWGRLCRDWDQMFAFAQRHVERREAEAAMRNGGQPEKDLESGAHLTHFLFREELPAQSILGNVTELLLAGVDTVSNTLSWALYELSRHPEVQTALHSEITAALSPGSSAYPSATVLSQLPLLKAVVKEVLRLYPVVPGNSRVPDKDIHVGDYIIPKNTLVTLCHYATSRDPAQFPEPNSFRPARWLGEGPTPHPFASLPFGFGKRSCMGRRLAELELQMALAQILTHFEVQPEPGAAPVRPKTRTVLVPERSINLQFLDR
Description: as §5, §6

Compound: C=C1CC[C@H](O)C/C1=C/C=C1\CCC[C@@]2(C)[C@H]1CC[C@]2(O)[C@H](C)O [17,20S(OH)2pD3, (5Z,7E)-(20S)-9,10-secopregna-5,7,10(19)-triene-3β,17α,20-triol]
- G-CSF [1]: 12 pg/mL
- GM-CSF [1]: 41 pg/mL
- IFNγ [1]: 0 pg/mL
- IL-1α [1]: 4 pg/mL
- IL-6 [1]: 13 pg/mL
- IL-10 [1]: 16 pg/mL
- IL-17 [1]: 111 pg/mL
- IP-10 [1]: 6 pg/mL
- KC [1]: 5 pg/mL
- MCP-1 [1]: 102 pg/mL
- TGF-b1 induced collagen protein production (Human dermal fibroblasts): inhibited TGF-b1 induced collagen protein production
- TGF-b1 induced Type I collagen protein production (ELISA) (type I collagen): suppressed
- TGF-b1 induced Col1A1 mRNA (Col1A1 mRNA): suppressed

Compound: C=C1CC[C@H](O)C/C1=C/C=C1\CCC[C@]2(C)[C@@H](C(C)O)CC[C@@H]12 (stereo partly drawn) [20OH pD3, (5Z,7E)-9,10-secopregna-5,7,10(19)-triene-3β,20-diol]
- proliferation (DNA synthesis) (HaCaT keratinocytes): inhibit proliferation
- growth on soft agar (colonies greater than 0.2 and 0.5 mm) [2]: inhibit the growth on soft agar
- proliferation (MTT test) [3]: inhibit proliferation
- differentiation of K562 cells [4]: induce differentiation
- proliferation of K562 cells [5]: inhibit proliferation
- proliferation of mouse erytholeukemia cells (Mel) [6]: inhibit proliferation

Compound: CC(O)[C@H]1CC[C@H]2C3=CC=C4C[C@@H](O)CC[C@@]4(C)[C@@H]3CC[C@]12C (stereo partly drawn) [20OH pL3, 3β,20-dihydroxy-9β,10α-pregna-5,7-diene]
- proliferation (DNA synthesis) (HaCaT keratinocytes): inhibit proliferation
- growth on soft agar (colonies greater than 0.2 and 0.5 mm) [2]: inhibit the growth on soft agar
- proliferation (MTT test) [3]: inhibit proliferation
- differentiation of K562 cells [4]: induce differentiation
- proliferation of K562 cells [5]: inhibit proliferation
- proliferation of mouse erytholeukemia cells (Mel) [6]: inhibit proliferation
- monocytic differentiation (NBT staining) [7]: induce monocytic differention
- monocytic differentiation (NBT staining) [8]: induce monocytic differention

- substrate consumed (bovine CYP11A1): 13%
Compound: C=C1CC[C@H](O)C/C1=C/C=C1\CCC[C@@]2(C)[C@H]1CC[C@@H]2[C@@](C)(O)CCCC(C)C [20S(OH)D3, (5Z,7E)-9,10-secocholesta-5,7,10(19)-triene-3β,20S-diol]
- metabolism by CYP27B1 (human CYP27B1): metabolized to a single product at comparable initial rates
